Results taken from ChEMBL document CHEMBL6083251, “"Pseudosubstrate Envelope"/Free Energy Perturbation-Guided Design and Mechanistic Investigations of Benzothiazole HIV Capsid Modulators with High Ligand Efficiency” (J Med Chem, 2024).
pEC50, pKd: −log10 of the molar value. Active and inactive are the calls of the source. No cut-off for these calls is given here.

Key:
[1] = Selectivity ratio of EC50 for wild type HIV-1 IIIB infected in human MT4 cells to EC50 for HIV-2 ROD infected in human MT-4 cells assessed as protection against virus-induced cytopathic effect incubated for 5 days by spectrophotometric based MTT assay; type: functional; conditions: time 5 day
[2] = Acute toxicity in male Kunming mouse assessed as death at 1000 mg/kg, IG administered via gavage; type: organism-based; conditions: in vivo, po
[3] = molecular target: T1, Structural capsid protein (Human immunodeficiency virus 1, UniProt Q76129); test: Binding affinity to monomeric HIV-1 NL4.3 capsid protein assessed as dissociation constant by SPR assay
T1 sequence (Q76129 whole entry): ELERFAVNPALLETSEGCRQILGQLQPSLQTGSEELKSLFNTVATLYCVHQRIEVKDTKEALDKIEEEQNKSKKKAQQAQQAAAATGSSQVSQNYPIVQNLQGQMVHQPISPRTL

[4] = MRT(0 to t) in male Sprague-Dawley rat at 10 mg/kg, sc measured upto 24 hrs by LC-MS/MS analysis; type: ADME, organism-based; conditions: in vivo
[5] = Selectivity index, ratio of CC50 for human MT4 cells to EC50 for HIV-2 ROD infected in human MT-4 cells; type: toxicity, cell-based; conditions: read-out: Selectivity Index
[6] = Cmax in male Sprague-Dawley rat at 2 mg/kg, iv measured upto 24 hrs by LC-MS/MS analysis; type: ADME, organism-based; conditions: in vivo
[7] = Acute toxicity in female Kunming mouse assessed as sedation at 1000 mg/kg, IG administered via gavage; type: organism-based; conditions: in vivo, po
[8] = Subacute toxicity in male Kunming mouse assessed as scattered lymphocyte infiltration in heart at 50 mg/kg, po administered every other day for 14 days by H and E staining based analysis; type: organism-based; conditions: in vivo, 336 h, time 14 day
[9] = Subacute toxicity in male Kunming mouse assessed as tremor at 50 mg/kg, po administered every other day for 14 days; type: organism-based; conditions: in vivo, 336 h, time 14 day
[10] = Acute toxicity in female Kunming mouse assessed as anorexia at 1000 mg/kg, IG administered via gavage; type: organism-based; conditions: in vivo, po
[11] = Acute toxicity in male Kunming mouse assessed as anorexia at 1000 mg/kg, IG administered via gavage; type: organism-based; conditions: in vivo, po
[12] = Subacute toxicity in male Kunming mouse assessed as focal lymphocyte infiltration in liver at 50 mg/kg, po administered every other day for 14 days by H and E staining based analysis; type: organism-based; conditions: in vivo, 336 h, time 14 day
[13] = molecular target: Structural capsid protein (Human immunodeficiency virus 1) (UniProt Q76129); test: Binding affinity to HIV-1 hexameric capsid protein assessed as reduction in NUP153 binding to capsid protein by competition assay based SPR analysis; conditions: filed as modulator
Structural capsid protein (Human immunodeficiency virus 1), sequence (Q76129 as listed by the source): as the sequence (Q76129 whole entry) above

[14] = […] bioavailability in male Sprague-Dawley rat at 10 mg/kg measured upto 24 hrs by LC-MS/MS analysis; type: ADME, organism-based; conditions: in vivo
[15] = MRT(0 to infinity) in male Sprague-Dawley at 10 mg/kg, sc measured upto 24 hrs by LC-MS/MS analysis; type: ADME, organism-based; conditions: rat, in vivo
[16] = AUC(0 to t) in male Sprague-Dawley rat at 2 mg/kg, iv measured upto 24 hrs by LC-MS/MS analysis; type: ADME, organism-based; conditions: in vivo
[17] = test system: Human immunodeficiency virus 1; test: Antiviral activity against pseudotyped HIV-1 expressing luciferase-reporter transfected in HEK293T cells assessed as increase in p24 level in progeny virions by ELISA analysis; type: functional, organism-based
[18] = Subacute toxicity in male Kunming mouse assessed as hunched posture at 50 mg/kg, po administered every other day for 14 days; type: organism-based; conditions: in vivo, 336 h, time 14 day
[19] = Acute toxicity in male Kunming mouse assessed as sedation at 1000 mg/kg, IG administered via gavage; type: organism-based; conditions: in vivo, po
[20] = Acute toxicity in male Kunming mouse assessed as convulsion at 1000 mg/kg, IG administered via gavage; type: organism-based; conditions: in vivo, po
[21] = Subacute toxicity in male Kunming mouse assessed as piloerection at 50 mg/kg, po administered every other day for 14 days; type: organism-based; conditions: in vivo, 336 h, time 14 day
[22] = molecular target: T1, Structural capsid protein; test: Binding affinity to hexameric HIV-1 NL4.3 capsid protein assessed as dissociation constant by SPR assay
[23] = AUC(0 to t) in male Sprague-Dawley rat at 10 mg/kg, sc measured upto 24 hrs by LC-MS/MS analysis; type: ADME, organism-based; conditions: in vivo
[24] = Subacute toxicity in male Kunming mouse assessed as pathological damage in lungs at 50 mg/kg, po administered every other day for 14 days by H and E staining based analysis; type: organism-based; conditions: in vivo, 336 h, time 14 day
[25] = Apparent volume of distribution in male Sprague-Dawley rat at 2 mg/kg, iv measured upto 24 hrs by LC-MS/MS analysis; type: ADME, organism-based; conditions: in vivo, read-out: Vz
[26] = AUC(0 to infinity) in male Sprague-Dawley rat at 10 mg/kg, sc measured upto 24 hrs by LC-MS/MS analysis; type: ADME, organism-based; conditions: in vivo
[27] = Acute toxicity in female Kunming mouse assessed as convulsion at 1000 mg/kg, IG administered via gavage; type: organism-based; conditions: in vivo, po
[28] = MRT(0 to t) in male Sprague-Dawley rat at 2 mg/kg, iv measured upto 24 hrs by LC-MS/MS analysis; type: ADME, organism-based; conditions: in vivo
[29] = Subacute toxicity in male Kunming mouse assessed as change in body weight at 50 mg/kg, po administered every other day for 14 days; type: organism-based; conditions: in vivo, 336 h, time 14 day
[30] = Acute toxicity in female Kunming mouse assessed as death at 1000 mg/kg, IG administered via gavage; type: organism-based; conditions: in vivo, po
[31] = Subacute toxicity in male Kunming mouse assessed as body jerks at 50 mg/kg, po administered every other day for 14 days; type: organism-based; conditions: in vivo, 336 h, time 14 day
[32] = Half life in male Sprague-Dawley rat at 10 mg/kg, sc measured upto 24 hrs by LC-MS/MS analysis; type: ADME, organism-based; conditions: in vivo
[33] = Subacute toxicity in male Kunming mouse assessed as pathological damage in spleen at 50 mg/kg, po administered every other day for 14 days by H and E staining based analysis; type: organism-based; conditions: in vivo, 336 h, time 14 day
[34] = test system: Human immunodeficiency virus 1; test: Antiviral activity against pseudotyped HIV-1 expressing luciferase-reporter transfected in HEK293T cells assessed as viral inhibition at early stage incubated for 48 hrs by Single-round infection assay; type: functional, organism-based
[35] = test system: Human immunodeficiency virus 1; test: Anti-HIV activity against wild type HIV-1 IIIB infected in human MT4 cells assessed as protection against virus-induced cytopathic effect incubated for 5 days by spectrophotometric based MTT assay; type: functional, organism-based; conditions: Human immunodeficiency virus 1, IIIB, MT4, 120 h
[36] = test system: Human immunodeficiency virus 1; test: Antiviral activity against pseudotyped HIV-1 expressing luciferase-reporter transfected in HEK293T cells assessed as viral inhibition at late stage incubated for 48 hrs by Single-round infection assay; type: functional, organism-based
[37] = test system: Human immunodeficiency virus 2; test: Anti-HIV activity against HIV-2 ROD infected in human MT-4 cells assessed as protection against virus-induced cytopathic effect incubated for 5 days by spectrophotometric based MTT assay; type: functional, organism-based; conditions: Human immunodeficiency virus 2, ROD, MT4, 120 h
[38] = Subacute toxicity in male Kunming mouse assessed as convulsion at 50 mg/kg, po administered every other day for 14 days; type: organism-based; conditions: in vivo, 336 h, time 14 day
[39] = C0 in male Sprague-Dawley rat at 2 mg/kg, iv measured upto 24 hrs by LC-MS/MS analysis; type: ADME, organism-based; conditions: in vivo
[40] = Subacute toxicity in male Kunming mouse assessed as pathological damage in kidney at 50 mg/kg, po administered every other day for 14 days by H and E staining based analysis; type: organism-based; conditions: in vivo, 336 h, time 14 day
[41] = molecular target: Structural capsid protein (Human immunodeficiency virus 1) (UniProt Q76129); test: Binding affinity to HIV-1 hexameric capsid protein assessed as reduction in CPSF6 binding to capsid protein by competition assay based SPR analysis; conditions: filed as modulator
[42] = AUC(0 to infinity) in male Sprague-Dawley rat at 2 mg/kg, iv measured upto 24 hrs by LC-MS/MS analysis; type: ADME, organism-based; conditions: in vivo

Structure (SMILES): CN(C(=O)[C@H](Cc1cc(F)cc(F)c1)NC(=O)Cc1c[nH]c2ccc(O)cc12)c1ccc2scnc2c1
- Ratio EC50 [1]: 0.03
- Activity [2]: Non-toxic
- pKd [3]: 7.09
- MRT last at 24 h [4]: 3.04 h
- selectivity ratio [5]: 1360
- Cmax [6]: 18.8 ng/mL
- Activity [7]: Non-toxic
- Activity [8]: Non-toxic
- Activity [9]: Non-toxic
- Activity [10]: Non-toxic
- Activity [11]: Non-toxic
- Activity [12]: Toxic
- Activity [13]: Active
- bioavailability [14]: 84.2%
- MRT inf [15]: 5.85 h
- AUC(0-t) at 24 h [16]: 5.53 ng·h/mL
- Activity [17]: Active
- Activity [18]: Non-toxic
- Activity [19]: Non-toxic
- Activity [20]: Non-toxic
- Activity [21]: Non-toxic
- pKd [22]: 7.61
- AUC(0-t) at 24 h [23]: 23.3 ng·h/mL
- Activity [24]: Non-toxic
- Vd [25]: 72.9 L/kg
- AUC(0-inf) [26]: 33.6 ng·h/mL
- Activity [27]: Non-toxic
- MRT last at 24 h [28]: 7.74 min
- Activity [29]: Non-toxic
- Activity [30]: Non-toxic
- Activity [31]: Non-toxic
- half-life [32]: 3.66 h
- Activity [33]: Non-toxic
- Activity [34]: Active
- pEC50 [35]: 8.57
- Activity [36]: Active
- pEC50 [37]: 7.01
- Activity [38]: Non-toxic
- C0 at 24 h [39]: 33.7 ng/mL
- Activity [40]: Non-toxic
- Activity [41]: Active
- AUC(0-inf) [42]: 7.77 ng·h/mL
